Assay results: US8772499B2, “TRPV3 modulators” (AbbVie Inc., priority 2011, dated 2014)
Where two headings read alike, the source gives them in different places.

Columns and labels:
[1] = molecular target: T1, human TRPV3 (Homo sapiens, UniProt Q8NET8); assay: In vitro antagonism of recombinant human TRPV3 activation (FLIPR Tetra calcium assay); format: cell-based; conditions: HEK293 cells stably expressing human TRPV3, agonist 2-APB at 80 μM
T1 construct: expressed in transfected cells
T1 sequence (Q8NET8 1-790): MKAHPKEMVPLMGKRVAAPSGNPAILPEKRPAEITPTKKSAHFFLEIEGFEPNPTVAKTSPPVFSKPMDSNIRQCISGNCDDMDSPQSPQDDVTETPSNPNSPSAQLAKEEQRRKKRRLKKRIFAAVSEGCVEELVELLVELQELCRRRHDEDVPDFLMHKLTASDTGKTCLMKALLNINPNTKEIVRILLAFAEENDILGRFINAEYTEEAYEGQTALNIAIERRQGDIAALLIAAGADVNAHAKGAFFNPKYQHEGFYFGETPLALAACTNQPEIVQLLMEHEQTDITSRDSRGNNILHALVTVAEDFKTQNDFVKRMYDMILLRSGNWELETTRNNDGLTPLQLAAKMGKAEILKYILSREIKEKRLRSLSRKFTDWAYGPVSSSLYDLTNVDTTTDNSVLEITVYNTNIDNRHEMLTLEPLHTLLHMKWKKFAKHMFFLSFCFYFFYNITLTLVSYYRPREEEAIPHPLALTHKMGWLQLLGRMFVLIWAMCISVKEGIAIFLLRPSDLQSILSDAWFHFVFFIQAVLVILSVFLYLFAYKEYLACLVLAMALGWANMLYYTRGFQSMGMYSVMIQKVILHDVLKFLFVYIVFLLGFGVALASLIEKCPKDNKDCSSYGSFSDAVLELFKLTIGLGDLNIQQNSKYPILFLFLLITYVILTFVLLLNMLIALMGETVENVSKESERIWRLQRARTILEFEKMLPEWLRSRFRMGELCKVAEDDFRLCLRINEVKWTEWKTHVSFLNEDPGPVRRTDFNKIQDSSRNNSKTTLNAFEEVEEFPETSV
Procedure: Test compounds were evaluated for ability to antagonize the activation of recombinant human TRPV3 using FLIPR® Tetra cellular screening. Specifically, on the day prior to the experiment recombinant HEK293 cells that stably express human TRPV3 were removed from tissue culture flasks and plated in growth medium at 20,000 cells/well into Poly-d-lysine coated black/clear 384-well Plate (Corning, 3845) using a Multidrop® dispenser (ThermoScientific, Waltham, Mass.). Prior to the start of the assay, the medium was removed by aspiration, and cells were loaded with 30 μL no-wash FLIPR® Calcium-4 dye (λEX=470-495 nm, λEM=515-575 nm; Molecular Devices, Sunnyvale, Calif.). The cells were then incubated for 90-120 minutes in the dark prior to addition of the test compound.
A double-addition protocol was used. The test compound (i.e., the TRPV3 antagonist) was added at the 10 second time point, followed by the addition of a TRPV3 agonist three minutes later. Each test compound evaluated was first dissolved in DMSO to prepare a 10 mM stock solution. A solution (5×) of the test compound was then prepared in DPBS (Dulbecco's Phosphate Buffered Saline) and 10 μl, of that solution was added to the cells at a delivery rate of 40 μL/sec. The TRPV3 agonist used to activate human TRPV3 expressed by the […] was 2-aminoethoxy-diphenyl borate (2-APB; Tocris Cookson, Ellisville, Mo.) at 80 μM. Final assay volume was 50 μl, Total length of an experimental run was 10 minutes.
Changes in fluorescence were measured over time using the FLIPR® instrument. The intensity of the fluorescence was captured and digitally transferred to an interfaced computer. The maximum response minus minimum response was calculated and expressed as the percentage of the maximum 2-APB response in the absence of antagonist. The concentration of 2-APB corresponds to its EC80.
Table 1 reports the IC50 values measured for the test compounds as human TRPV3 antagonists. […] Actual measured values are shown parenthetically after the reported range. In most cases, the values reported are average values from at least two runs (i.e., n≧2).

[2] = In vitro human microsomal stability assay; format: in vitro ADME; conditions: human, microsomes, 0.5 h, 0.5 μM, pH 7.4
Procedure: (§1) Test compounds were evaluated for metabolic stability in an in vitro rat microsomal stability assay using rat liver microsomes (Sprague-Dawley, from BD Biosciences) and/or an in vitro human microsomal stability assay using human liver microsomes (Xenotech). […] Incubations were carried out at 37° C. with a final incubation volume of 135 μL. […] A 1.5 μL aliquot of reduced nicotine adenine disphosphonucleotide (NADPH) (Chem-Impex Int'L Inc., Lot 12532024) was also added to the time-zero plates.

[3] = In vitro rat microsomal stability assay; format: in vitro ADME, rat (Sprague-Dawley); conditions: Sprague-Dawley, rat, microsomes, 0.5 h, 0.5 μM, pH 7.4
Procedure: as §1

[4] = actual measured value shown parenthetically, in most cases average of at least two runs, read-out: IC50
[5] = reported range, read-out: IC50 (range class)

| IC50 [1, 4] [nM] | HUMAN MICROSOMAL STABILITY (% REMAINING AFTER 30 MINUTES) [2] [%] | RAT MICROSOMAL STABILITY (% REMAINING AFTER 30 MINUTES) [3] [%] | IC50 [1, 5] [nM] | SMILES |
| --- | --- | --- | --- | --- |
| 370 | 38 | 7.0 |  | OC(c1ccccn1)C1(c2ccc(C(F)(F)F)cc2)CCCO1 (single isomer, unassigned) [Example 88, (anti)-pyridin-2-yl{2-[4-(trifluoromethyl)phenyl]tetrahydrofuran-2-yl}methanol] |
| 2000 | 70 | 4.3 |  | OC(c1ccccn1)C1(c2ccc(C(F)(F)F)cc2)CCCO1 (single isomer, unassigned) [Example 89, (syn)-pyridin-2-yl{2-[4-(trifluoromethyl)phenyl]tetrahydrofuran-2-yl}methanol] |
| 100 | 2.7 | 0.23 |  | OC(c1ccccn1)C1(c2cccc(OC(F)(F)F)c2)CCCO1 (single isomer, unassigned) [Example 92, (anti)-pyridin-2-yl{2-[3-(trifluoromethoxy)phenyl]tetrahydrofuran-2-yl}methanol] |
| 590 | 12 | 0.33 |  | OC(c1ccccn1)C1(c2cccc(OC(F)(F)F)c2)CCCO1 (single isomer, unassigned) [Example 93, (syn)-pyridin-2-yl{2-[3-(trifluoromethoxy)phenyl]tetrahydrofuran-2-yl}methanol] |
| 360 | 55 | 3.8 |  | OC(c1ccccn1)C1(c2ccc(OC(F)(F)F)cc2)CCCO1 (single isomer, unassigned) [Example 94, (anti)-pyridin-2-yl{2-[4-(trifluoromethoxy)phenyl]tetrahydrofuran-2-yl}methanol] |
| 1850 | 57 | 0.61 |  | OC(c1ccccn1)C1(c2ccc(OC(F)(F)F)cc2)CCCO1 (single isomer, unassigned) [Example 95, (syn)-pyridin-2-yl{2-[4-(trifluoromethoxy)phenyl]tetrahydrofuran-2-yl}methanol] |
| 1220 | 0.68 | 0.15 |  | OC(c1ccccn1)C1(c2ccccc2OC(F)(F)F)CCCO1 (single isomer, unassigned) [Example 96, (anti)-pyridin-2-yl{2-[2-(trifluoromethoxy)phenyl]tetrahydrofuran-2-yl}-methanol] |
| 300 | 6.4 | 0.16 |  | OC(c1ccccn1)C1(c2ccccc2OC(F)(F)F)CCCO1 (single isomer, unassigned) [Example 97, (syn)-pyridin-2-yl{2-[2-(trifluoromethoxy)phenyl]tetrahydrofuran-2-yl}-methanol] |
| 110 | 7.6 | 0.020 |  | OC(c1ccccn1)C1(c2ccc(Cl)c(Cl)c2)CCCO1 (single isomer, unassigned) [Example 98] |
| 1240 | 30 | 0.17 |  | OC(c1ccccn1)C1(c2ccc(Cl)c(Cl)c2)CCCO1 (single isomer, unassigned) [Example 99, (syn)-[2-(3,4-dichlorophenyl)tetrahydrofuran-2-yl](pyridin-2-yl)methanol] |
| 830 | 26 | 2.9 |  | OC(c1ccccn1)C1(c2cccc(F)c2)CCCO1 (single isomer, unassigned) [Example 100, (anti)-[2-(3-fluorophenyl)tetrahydrofuran-2-yl](pyridin-2-yl)methanol] |
| > 20000 | 40 | 0.17 | > 20000 | OC(c1ccccn1)C1(c2cccc(F)c2)CCCO1 (single isomer, unassigned) [Example 101, (syn)-[2-(3-fluorophenyl)tetrahydrofuran-2-yl](pyridin-2-yl)methanol] |
| 280 | 15 | 0.42 |  | OC(c1ccccn1)C1(c2cccc(Cl)c2)CCCO1 (single isomer, unassigned) [Example 104, (anti)-[2-(3-chlorophenyl)tetrahydrofuran-2-yl](pyridin-2-yl)methanol] |
| 7570 | 42 | 0.040 |  | OC(c1ccccn1)C1(c2cccc(Cl)c2)CCCO1 (single isomer, unassigned) [Example 105, (syn)-[2-(3-chlorophenyl)tetrahydrofuran-2-yl](pyridin-2-yl)methanol] |
| 210 | 3.9 | 1.6 |  | OC(c1ccccn1)C1(c2cccc(C(F)(F)F)c2)CCCO1 (single isomer, unassigned) [Example 106, (anti)-pyridin-2-yl{2-[3-(trifluoromethyl)phenyl]tetrahydrofuran-2-yl}-methanol] |
| 2930 | 31 | 0.23 |  | OC(c1ccccn1)C1(c2cccc(C(F)(F)F)c2)CCCO1 (single isomer, unassigned) [Example 107, (syn)-pyridin-2-yl{2-[3-(trifluoromethyl)phenyl]tetrahydrofuran-2-yl}-methanol] |
| 610 | 13 | 4.9 |  | OC(c1ccccn1)C1(c2ccc(F)c(F)c2)CCCO1 (single isomer, unassigned) [Example 108, (anti)-[2-(3,4-difluorophenyl)tetrahydrofuran-2-yl](pyridin-2-yl)methanol] |
| 5810 | 45 | 0.74 |  | OC(c1ccccn1)C1(c2ccc(F)c(F)c2)CCCO1 (single isomer, unassigned) [Example 109, (syn)-[2-(3,4-difluorophenyl)tetrahydrofuran-2-yl](pyridin-2-yl)methanol] |
| 820 | >85 | 50 | 1100 to 5000 | OC1CC(c2ccc(OC(F)(F)F)cc2)(C(O)c2ccccn2)C1 (single isomer, unassigned) [Example 131] |
| 9330 | 81 | 72 |  | OC1CC(c2ccc(OC(F)(F)F)cc2)(C(O)c2ccccn2)C1 (single isomer, unassigned) [Example 132] |
